Reference: patent US4760136A, “Chartreusin derivatives and salts thereof” (Ishihara Sangyo Kaisha, Ltd., priority 1984, dated 1988)

Columns and labels:
P-388 leukemia cells = experiment: Antitumor activity: P-388 leukemia cells inoculated intraperitoneally, drug administered intravenously, BDF1 mice; assay type: in vivo; details: Mus musculus, P388, iv, BDF1 mice, P-388 i.p., read-out: T/C (%) of MST; for response vs control in vivo at 40 mg/kg: dose c: 40 mg/kg × 3, i.v. on days 1, 5 and 9; for response vs control in vivo at 80 mg/kg: dose f: 80 mg/kg × 3, i.v. on days 1, 5 and 9; for response vs control in vivo at 20 mg/kg: dose b: 20 mg/kg × 3, i.v. on days 1, 5 and 9
Procedure: Into BDF1 mice were inoculated intraperitoneally P-388 leukemia cells at a rate of 1×10^6 cells/mouse, and each drug to be tested was administered intravenously on the first, fifth and ninth days after the inoculation. […] The drugs were as follows solutions prepared by adding physiological saline to each of compound Nos. 8, 9, 10, 11, 17, 34, 42, 59, 80 and 134; suspensions prepared by dispersing each of compound Nos. 41, 78, 98, 100, 130, 191, 212, 213, 215, 227 and 230 to 232 and a small amount of sodium carboxymethyl cellulose (Na.CMC) in physiological saline, […]

[1] = Acute toxicity, intravenous (once), ddY mice; assay type: in vivo; details: mouse, in vivo, iv, formulated per Preparation Example
From the text: In Table 7 are shown acute toxicity values (LD50, mg/kg) in ddY mice in the case of intravenously administering (once) each of the compounds of this invention in the form of preparations shown in the Preparation Examples shown in Table 7.

Compound	response vs control in vivo at 40 mg/kg (P-388 leukemia cells) [%]	response vs control in vivo at 80 mg/kg (P-388 leukemia cells) [%]	LD50 [1] [mg/kg]	response vs control in vivo at 20 mg/kg (P-388 leukemia cells) [%]	response vs control in vivo at 60 mg/kg (P-388 leukemia cells; dose e: 60 mg/kg × 3, i.v. on days 1, 5 and 9) [%]	response vs control in vivo at 50 mg/kg (P-388 leukemia cells; dose d: 50 mg/kg × 3, i.v. on days 1, 5 and 9) [%]
COC1C(O)C(C)OC(OC2C(Oc3cccc4c(OC(=O)CCCCCCCNC(=O)C(F)(F)F)c5c(=O)oc6ccc(C)c7c(=O)oc(c34)c5c67)OC(C)C3OC(c4cccc(F)c4)OC32)C1O (stereo not shown) [Compound No. 64]	165	210	≥ 80	–	–	–
COC1C(O)C(C)OC(OC2C(Oc3cccc4c(OC(=O)C(C)CNC(=O)OCc5ccccc5)c5c(=O)oc6ccc(C)c7c(=O)oc(c34)c5c67)OC(C)C3OC(c4ccccc4)OC32)C1O (stereo not drawn) [Compound No. 69, 6-O-(N-Carbobenzyloxy-β-Amino-Isobutyryl)-3,4-O-Benzylidene-Chartreusin]	222	–	≥ 40	179	–	–
COC1C(O)C(C)OC(OC2C(Oc3cccc4c(OC(=O)C(CC[S+](C)[O-])NC(=O)OCc5ccccc5)c5c(=O)oc6ccc(C)c7c(=O)oc(c34)c5c67)OC(C)C3OC(c4ccccc4)OC32)C1O (stereo not shown) [Compound No. 79, 6-O-(N-Carbobenzyloxy-S-Oxomethionyl)-3',4'-O-Benzylidene-Chartreusin]	179	–	≥ 40	–	–	–
COC1C(O)C(C)OC(OC2C(Oc3cccc4c(OC(=O)CCNC(C)=O)c5c(=O)oc6ccc(C)c7c(=O)oc(c34)c5c67)OC(C)C3OC(C)(C)OC32)C1O (stereo not drawn) [Compound No. 87, 6-O-(N-Acetyl-β-Alanyl)-3',4'-O-Isopropylidene-Chartreusin]	134	183	≥ 100	–	–	–
COC1C(O)C(C)OC(OC2C(Oc3cccc4c(OC(=O)CCCCCNC(=O)OCc5ccccc5)c5c(=O)oc6ccc(C)c7c(=O)oc(c34)c5c67)OC(C)C3OC(C)(C)OC32)C1O (stereo not shown) [Compound No. 111, 6-O-(N-Carbobenzyloxy-6-Amino-n-Hexanoyl)-3',4'-O-Isopropylidene-Chartreusin]	–	–	≥ 100	–	175	–
COC1C(O)C(C)OC(OC2C(Oc3cccc4c(OC(=O)CCNC(=O)C(Cl)(Cl)Cl)c5c(=O)oc6ccc(C)c7c(=O)oc(c34)c5c67)OC(C)C3OC(C)(C)OC32)C1O (stereo not drawn) [Compound No. 112, 6-O-(N-Trichloroacetyl-β-Alanyl)-3',4'-O-Isopropylidene-Chartreusin]	–	–	≥ 100	–	–	148
COC1C(O)C(C)OC(OC2C(Oc3cccc4c(OC(=O)CNC(=O)CNC(=O)CNC(=O)OCc5ccccc5)c5c(=O)oc6ccc(C)c7c(=O)oc(c34)c5c67)OC(C)C3OC(c4ccccc4)OC32)C1O (stereo not shown) [Compound No. 114, 6-O-(N-Carbobenzyloxy-Glycyl-Glycyl-Glycyl)-3',4'-O-Benzylidene-Chartreusin]	130	–	≥ 40	–	–	–
COC1C(O)C(C)OC(OC2C(Oc3cccc4c(OC(=O)C(C)CN(C(=O)OCc5ccccc5)C(C)C)c5c(=O)oc6ccc(C)c7c(=O)oc(c34)c5c67)OC(C)C3OC(c4ccccc4)OC32)C1O (stereo not drawn) [Compound No. 135, 6-O-(N-Carbobenzyloxy-N-Isopropyl-β-Amino-isobutyryl)-3',4'-O-benzylidenechartreusin]	–	–	≥ 40	167	–	–
COC1C(O)C(C)OC(OC2C(Oc3cccc4c(OC(=O)CCCO)c5c(=O)oc6ccc(C)c7c(=O)oc(c34)c5c67)OC(C)C3OC(c4ccccc4)OC32)C1O (stereo not shown) [Compound No. 147, 6-O-(4-Hydroxy-n-Butyryl)-3',4'-O-Benzylidene-Chartreusin]	–	–	≥ 40	214	–	–
COC1C(O)C(C)OC(OC2C(Oc3cccc4c(OC(=O)COC(C)=O)c5c(=O)oc6ccc(C)c7c(=O)oc(c34)c5c67)OC(C)C3OC(c4ccccc4)OC32)C1O (stereo not shown) [Compound No. 148]	250	–	≥ 40	185	–	–
COC1C(O)C(C)OC(OC2C(Oc3cccc4c(OC(=O)COC(=O)CCCl)c5c(=O)oc6ccc(C)c7c(=O)oc(c34)c5c67)OC(C)C3OC(c4ccccc4)OC32)C1O (stereo not shown) [Compound No. 149]	–	–	≥ 40	203	–	–
COC1C(O)C(C)OC(OC2C(Oc3cccc4c(OC(=O)CC[S+](C)[O-])c5c(=O)oc6ccc(C)c7c(=O)oc(c34)c5c67)OC(C)C3OC(c4ccccc4)OC32)C1O (stereo not shown) [Compound No. 150]	205	–	≥ 40	200	–	–
COC1C(O)C(C)OC(OC2C(Oc3cccc4c(OC(=O)C(C)OCc5ccccc5)c5c(=O)oc6ccc(C)c7c(=O)oc(c34)c5c67)OC(C)C3OC(c4ccccc4)OC32)C1O (stereo not shown) [Compound No. 151]	224	–	≥ 40	155	–	–
COC1C(O)C(C)OC(OC2C(Oc3cccc4c(OC(=O)CCSC)c5c(=O)oc6ccc(C)c7c(=O)oc(c34)c5c67)OC(C)C3OC(c4ccccc4)OC32)C1O (stereo not shown) [Compound No. 152]	210	–	≥ 40	157	–	–
COC1C(O)C(C)OC(OC2C(Oc3cccc4c(OC(=O)CCC(C)=O)c5c(=O)oc6ccc(C)c7c(=O)oc(c34)c5c67)OC(C)C3OC(c4ccccc4)OC32)C1O (stereo not shown) [Compound No. 153]	243	–	≥ 40	203	–	–
COC1C(O)C(C)OC(OC2C(Oc3cccc4c(OC(=O)CCc5ccccc5)c5c(=O)oc6ccc(C)c7c(=O)oc(c34)c5c67)OC(C)C3OC(c4ccccc4)OC32)C1O (stereo not shown) [Compound No. 154]	214	–	≥ 40	205	–	–
COC1C(O)C(C)OC(OC2C(Oc3cccc4c(OC(=O)C5CC5)c5c(=O)oc6ccc(C)c7c(=O)oc(c34)c5c67)OC(C)C3OC(c4ccsc4)OC32)C1O (stereo not shown) [Compound No. 155]	183	–	≥ 40	171	–	–
COC1C(O)C(C)OC(OC2C(Oc3cccc4c(OC(=O)CCC(C)=O)c5c(=O)oc6ccc(C)c7c(=O)oc(c34)c5c67)OC(C)C3OC(C)(C)OC32)C1O (stereo not shown) [Compound No. 156]	160	218	≥ 80	–	–	–
COC1C(O)C(C)OC(OC2C(Oc3cccc4c(OC(=O)CCCl)c5c(=O)oc6ccc(C)c7c(=O)oc(c34)c5c67)OC(C)C3OC(C)(C)OC32)C1O (stereo not shown) [Compound No. 157]	153	201	≥ 80	–	–	–
COC1C(O)C(C)OC(OC2C(Oc3cccc4c(OC(=O)c5cccc(N(C)C)c5)c5c(=O)oc6ccc(C)c7c(=O)oc(c34)c5c67)OC(C)C3OC(c4cccc(F)c4)OC32)C1O (stereo not shown) [Compound No. 158, 6-O-(m-Dimethylaminobenzoyl)-3',4'-O-(m-Fluorobenzylidene)-Chartreusin]	174	205	≥ 80	–	–	–
COC1C(O)C(C)OC(OC2C(Oc3cccc4c(OC(=O)CC(C)C)c5c(=O)oc6ccc(C)c7c(=O)oc(c34)c5c67)OC(C)C3OC(c4ccc(F)cc4)OC32)C1O (stereo not shown) [Compound No. 159]	171	216	≥ 40	–	–	–
C=CCCC(=O)Oc1c2cccc(OC3OC(C)C4OC(c5cccc([N+](=O)[O-])c5)OC4C3OC3OC(C)C(O)C(OC)C3O)c2c2oc(=O)c3c(C)ccc4oc(=O)c1c2c43 (stereo not shown) [Compound No. 160]	160	218	≥ 80	–	–	–
C/C=C(\C)C(=O)Oc1c2cccc(OC3OC(C)C4OC(c5cccc(C(F)(F)F)c5)OC4C3OC3OC(C)C(O)C(OC)C3O)c2c2oc(=O)c3c(C)ccc4oc(=O)c1c2c43 (stereo not drawn) [Compound No. 161, 6-O-(Trans-2-Methyl-2-Butenoyl)-3',4'-O-(m-Trifluoromethylbenzylidene)Chartreusin]	169	234	≥ 80	–	–	–
COC1C(O)C(C)OC(OC2C(Oc3cccc4c(OC(=O)CCC(C)=O)c5c(=O)oc6ccc(C)c7c(=O)oc(c34)c5c67)OC(C)C3OC(c4cccc(C(F)(F)F)c4)OC32)C1O (stereo not shown) [Compound No. 162]	157	243	≥ 80	–	–	–
COC1C(O)C(C)OC(OC2C(Oc3cccc4c(OC(=O)CC(C)C)c5c(=O)oc6ccc(C)c7c(=O)oc(c34)c5c67)OC(C)C3OC(c4cccc(Br)c4)OC32)C1O (stereo not shown) [Compound No. 163]	156	227	≥ 80	–	–	–
COC1C(O)C(C)OC(OC2C(Oc3cccc4c(OC(=O)CCCl)c5c(=O)oc6ccc(C)c7c(=O)oc(c34)c5c67)OC(C)C3OC(c4ccccc4)OC32)C1O (stereo not shown) [Compound No. 164]	–	–	≥ 40	198	–	–
